Assay results published in ChEMBL document CHEMBL1201862, “PubChem BioAssay data set” (2004).
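Where inhibition never reached the appropriate level, the endpoint shown equals the highest concentration tested. Otherwise, values were interpolated linearly from a five-concentration, 48-hour dose response in 96-well plates. GI50: concentration for 50% inhibition of growth.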 Activity calls are given as the source filed them. Rule as the data show it: active = GI50 up to about 1.1 µM and inactive = higher.

How the values were obtained:
Assay in all cases: growth of human tumour cells (NCI), 48 h
HCT-15 = tested on: HCT-15
TK-10 = tested on: TK-10
RPMI-8226 = tested on: RPMI-8226
NCI-H226 = tested on: NCI-H226
NCI-H460 = tested on: NCI-H460
SK-OV-3 = tested on: SK-OV-3
A549 = tested on: A549
OVCAR-3 = tested on: OVCAR-3
SK-MEL-28 = tested on: SK-MEL-28
HOP-92 = tested on: HOP-92
M14 = tested on: M14
CAKI-1 = tested on: CAKI-1
HL-60 = tested on: HL-60
UACC-257 = tested on: UACC-257
SW-620 = tested on: SW-620
K562 = tested on: K562
Malme-3M = tested on: Malme-3M
RXF 393 = tested on: RXF 393
SF-268 = tested on: SF-268
A498 = tested on: A498

SMILES | GI50 (HCT-15) | GI50 (TK-10) | GI50 (RPMI-8226) | GI50 (NCI-H226) | GI50 (NCI-H460) | GI50 (SK-OV-3) | GI50 (A549) | GI50 (OVCAR-3) | GI50 (SK-MEL-28) | GI50 (HOP-92) | GI50 (M14) | GI50 (CAKI-1) | GI50 (HL-60) | GI50 (UACC-257) | GI50 (SW-620) | GI50 (K562) | GI50 (Malme-3M) | GI50 (RXF 393) | GI50 (SF-268) | GI50 (A498)
CCCCSCCC(N)P(=O)(O)O (stereo unspecified) | > 100 µM | > 100 µM (inactive) | > 100 µM (inactive) | > 100 µM (inactive) | > 100 µM (inactive) | > 100 µM (inactive) | > 100 µM (inactive) | > 100 µM (inactive) | > 100 µM (inactive) | > 100 µM (inactive) | > 100 µM (inactive) | > 100 µM (inactive) | > 100 µM (inactive) | > 100 µM (inactive) | > 100 µM (inactive) | > 100 µM (inactive) | – | – | – | –
O=S(=O)(c1ccc(I)cc1)N(c1ccccc1)S(=O)(=O)C(F)(F)C(F)(F)C(F)(F)C(F)(F)F | 41.2 µM | 14.2 µM (inactive) | 42.7 µM (inactive) | 22.9 µM (inactive) | 31.9 µM (inactive) | 26.4 µM (inactive) | 31.5 µM (inactive) | 22.6 µM (inactive) | 40.6 µM (inactive) | 15.4 µM (inactive) | 34.8 µM (inactive) | 34.1 µM (inactive) | 97.7 µM (inactive) | > 100 µM (inactive) | 34.7 µM (inactive) | 41.6 µM (inactive) | 18.6 µM (inactive) | 24.8 µM (inactive) | – | –
COc1cccc(CCn2c(N)c(-c3cc(Cl)cc(Cl)c3)c3ccc([N+](=O)[O-])cc3c2=O)c1 | 3.19 µM | 4.28 µM (inactive) | 0.65 µM (active) | 3.67 µM (inactive) | 3.04 µM (inactive) | 8.89 µM (inactive) | 4.76 µM (inactive) | 3.13 µM (inactive) | 4.84 µM (inactive) | 2.85 µM (inactive) | 3.95 µM (inactive) | 3.5 µM (inactive) | 0.811 µM (active) | 3.33 µM (inactive) | 4.04 µM (inactive) | 1.75 µM (inactive) | 2.83 µM (inactive) | – | 5.86 µM (inactive) | 3.56 µM (inactive)
O=C1C(Cl)N(c2ccc([N+](=O)[O-])cc2)C1c1c[nH]c2ccccc12 (stereo unspecified) | – | > 100 µM (inactive) | 30.8 µM (inactive) | – | 41.7 µM (inactive) | 56.6 µM (inactive) | > 100 µM (inactive) | 47.8 µM (inactive) | > 100 µM (inactive) | 83 µM (inactive) | 64.7 µM (inactive) | – | 31 µM (inactive) | 64.1 µM (inactive) | > 100 µM (inactive) | 55 µM (inactive) | 42.1 µM (inactive) | > 100 µM (inactive) | > 100 µM (inactive) | –
CCc1n[nH]c(=O)n1CC | > 100 µM | > 100 µM (inactive) | > 100 µM (inactive) | > 100 µM (inactive) | > 100 µM (inactive) | > 100 µM (inactive) | > 100 µM (inactive) | > 100 µM (inactive) | > 100 µM (inactive) | > 100 µM (inactive) | – | > 100 µM (inactive) | 21.7 µM (inactive) | > 100 µM (inactive) | > 100 µM (inactive) | > 100 µM (inactive) | > 100 µM (inactive) | – | > 100 µM (inactive) | > 100 µM (inactive)
COc1ccccc1-c1cc(O)c2cc(C)cnc2n1 | 19.3 µM | > 100 µM (inactive) | 30.4 µM (inactive) | 52.2 µM (inactive) | – | 25.3 µM (inactive) | 51.6 µM (inactive) | – | 22.6 µM (inactive) | 36.8 µM (inactive) | 37.9 µM (inactive) | 19.3 µM (inactive) | – | 38 µM (inactive) | 24.7 µM (inactive) | 5.89 µM (inactive) | 24.7 µM (inactive) | 33.4 µM (inactive) | 52.7 µM (inactive) | 24.9 µM (inactive)
O=C(O)Cc1ccc(N2N=C(c3ccccc3)CC2=O)cc1 | > 100 µM | > 100 µM (inactive) | – | > 100 µM (inactive) | > 100 µM (inactive) | > 100 µM (inactive) | – | > 100 µM (inactive) | > 100 µM (inactive) | – | > 100 µM (inactive) | > 100 µM (inactive) | > 100 µM (inactive) | > 100 µM (inactive) | > 100 µM (inactive) | > 100 µM (inactive) | 18.6 µM (inactive) | – | > 100 µM (inactive) | > 100 µM (inactive)
CC1(Cl)CC2C(CC1Sc1nnnn1-c1ccccc1)C2(C)C (stereo unspecified) | 41.3 µM | > 100 µM (inactive) | 27.8 µM (inactive) | > 100 µM (inactive) | 89.9 µM (inactive) | – | 67.1 µM (inactive) | 38.7 µM (inactive) | > 100 µM (inactive) | 58.6 µM (inactive) | > 100 µM (inactive) | – | 17.9 µM (inactive) | 87.3 µM (inactive) | > 100 µM (inactive) | 32.4 µM (inactive) | – | 48.9 µM (inactive) | > 100 µM (inactive) | –
COc1cccc(NC(=O)CC(=O)NN2C(=O)/C(=C/c3ccc(N(CCC#N)CCC#N)cc3)N=C2c2cc([N+](=O)[O-])ccc2Cl)c1 | > 100 µM | > 100 µM (inactive) | 30.3 µM (inactive) | 13.6 µM (inactive) | – | > 100 µM (inactive) | > 100 µM (inactive) | > 100 µM (inactive) | > 100 µM (inactive) | > 100 µM (inactive) | > 100 µM (inactive) | > 100 µM (inactive) | – | – | > 100 µM (inactive) | 44.3 µM (inactive) | 32.7 µM (inactive) | > 100 µM (inactive) | > 100 µM (inactive) | –
COc1cccc(CC2Cc3ccccc3CC(=O)N2)c1 (stereo unspecified) | – | 29.9 µM (inactive) | 37.6 µM (inactive) | 20.8 µM (inactive) | 20.9 µM (inactive) | 62.8 µM (inactive) | 34.1 µM (inactive) | 20.4 µM (inactive) | 54.2 µM (inactive) | 24.1 µM (inactive) | 14 µM (inactive) | 16.6 µM (inactive) | 40.1 µM (inactive) | 29.2 µM (inactive) | 85.1 µM (inactive) | 80 µM (inactive) | – | 26.8 µM (inactive) | 46.2 µM (inactive) | –
[N-]=[N+]=NC(c1cn(C2CC(O)C(CO)O2)c(=O)[nH]c1=O)C(Br)Br (stereo unspecified) | > 100 µM | > 100 µM (inactive) | > 100 µM (inactive) | > 100 µM (inactive) | > 100 µM (inactive) | > 100 µM (inactive) | > 100 µM (inactive) | > 100 µM (inactive) | > 100 µM (inactive) | > 100 µM (inactive) | > 100 µM (inactive) | > 100 µM (inactive) | > 100 µM (inactive) | – | > 100 µM (inactive) | > 100 µM (inactive) | > 100 µM (inactive) | > 100 µM (inactive) | – | –
Cc1n(CC(=O)c2ccc([N+](=O)[O-])cc2)c2c([n+]1CC(C)C)C(=O)c1ccccc1C2=O | 2.88 µM | – | < 0.01 µM (active) | < 0.0111 µM (active) | < 0.04 µM (active) | 0.361 µM (active) | < 0.0318 µM (active) | < 0.0424 µM (active) | 0.0411 µM (active) | < 0.0226 µM (active) | – | 0.121 µM (active) | < 0.01 µM (active) | < 0.01 µM (active) | < 0.01 µM (active) | < 0.01 µM (active) | < 0.01 µM (active) | – | < 0.01 µM (active) | 0.668 µM (active)
COc1ccc(CCn2nccc2C)cc1 | > 100 µM | > 100 µM (inactive) | > 100 µM (inactive) | – | > 100 µM (inactive) | > 100 µM (inactive) | > 100 µM (inactive) | > 100 µM (inactive) | > 100 µM (inactive) | – | > 100 µM (inactive) | > 100 µM (inactive) | > 100 µM (inactive) | > 100 µM (inactive) | > 100 µM (inactive) | > 100 µM (inactive) | > 100 µM (inactive) | > 100 µM (inactive) | > 100 µM (inactive) | –
Clc1ccc(C2ON=C(c3ccccc3)N2C23CC4CC(CC(C4)C2)C3)c(Cl)c1 (stereo unspecified) | > 10 µM | > 10 µM (inactive) | > 10 µM (inactive) | > 10 µM (inactive) | > 10 µM (inactive) | > 10 µM (inactive) | > 10 µM (inactive) | > 10 µM (inactive) | > 10 µM (inactive) | > 10 µM (inactive) | > 10 µM (inactive) | > 10 µM (inactive) | – | > 10 µM (inactive) | > 10 µM (inactive) | > 10 µM (inactive) | > 10 µM (inactive) | > 10 µM (inactive) | > 10 µM (inactive) | > 10 µM (inactive)
C=C1C2=C(CCCC2)C(=O)OC12CCCCC2 | 60.1 µM | > 100 µM (inactive) | 35.5 µM (inactive) | 93.8 µM (inactive) | 91.4 µM (inactive) | > 100 µM (inactive) | 49.3 µM (inactive) | 43.5 µM (inactive) | 79.4 µM (inactive) | 19.5 µM (inactive) | > 100 µM (inactive) | – | 27.1 µM (inactive) | 52.1 µM (inactive) | > 100 µM (inactive) | 45.2 µM (inactive) | 51.3 µM (inactive) | 56.5 µM (inactive) | 86.1 µM (inactive) | –
Cc1ccc(SSCCCCCS(=O)O)cc1 | – | 26.9 µM (inactive) | 24.9 µM (inactive) | – | 48.5 µM (inactive) | > 100 µM (inactive) | – | 22.2 µM (inactive) | 46.5 µM (inactive) | – | 40.4 µM (inactive) | – | 16.6 µM (inactive) | 31.2 µM (inactive) | – | 21.2 µM (inactive) | 18.3 µM (inactive) | 15.4 µM (inactive) | 14.6 µM (inactive) | 19 µM (inactive)
